According to PubChem BioAssay (NCI):
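48-hour exposure; five concentrations; linearly interpolated endpoints. TGI: concentration producing complete growth inhibition.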

Key:
Experiment in all cases: inhibition of tumour cell growth, NCI panel, 48 h
[1] = test system: ACHN renal
[2] = test system: HCC-2998 colon
[3] = test system: K-562 leukemia
[4] = test system: KM12 colon
[5] = test system: MALME-3M melanoma
[6] = test system: MDA-N
[7] = test system: NCI-H23 lung
[8] = test system: NCI-H522 lung
[9] = test system: SF-539 CNS
[10] = test system: SNB-75 CNS

Row | SMILES | TGI [1] [µM] | TGI [2] [µM] | TGI [3] [µM] | TGI [4] [µM] | TGI [5] [µM] | TGI [6] [µM] | TGI [7] [µM] | TGI [8] [µM] | TGI [9] [µM] | TGI [10] [µM]
1 | CCN(/C=C1/C(=O)C(c2ccccc2)N(c2ccccc2)C1=O)CC (centres undefined) | > 10 | > 10 | > 10 | > 10 | > 10 | > 10 | > 10 | > 10 | > 10 | > 10
2 | COC(=O)/C=C(\C(=O)OC)c1cc(C)c2cc(C(C)C)ccc(C)c1-2 | > 100 | 87.5 | > 100 | > 100 | > 100 | 46.3 | > 100 | 50.3 | > 100 | –
3 | CC(N)(CC(O)(C(F)(F)Cl)C(F)(F)Cl)C(=O)O (centres undefined) | > 10 | > 10 | > 10 | > 10 | > 10 | > 10 | > 10 | > 10 | > 10 | > 10
4 | Cn1c(CNc2ccc(-c3n[nH]c(=S)n3C)cc2)n[nH]c1=S | > 100 | > 100 | > 100 | > 100 | > 100 | > 100 | > 100 | > 100 | > 100 | > 100
5 | COc1ccc(CCCCNCc2cccc(CNCCCCc3ccc(OC)cc3)c2)cc1 | 3.47 | 0.922 | – | 3.69 | 3.6 | 4.25 | 3.37 | 3.5 | – | 3.38
6 | Cc1ccc(OCC2OC(n3cnc4c(Cl)nc(Nc5cc(Cl)cc(Cl)c5)nc43)CC2Oc2ccc(C)cc2)cc1 (centres undefined) | > 100 | > 100 | > 100 | > 100 | > 100 | > 100 | > 100 | > 100 | > 100 | > 100
7 | O=[N+]([O-])c1ccc(/C=N/Nc2nc3ccccc3[nH]2)o1 | – | – | 32.1 | 24.1 | 30.7 | 31.7 | 43.6 | 41.2 | 13.8 | 36.4
8 | O=C(NCCC1CNc2ccccc21)OCc1ccccc1 (centres undefined) | > 100 | > 100 | > 100 | > 100 | > 100 | > 100 | > 100 | > 100 | – | –
9 | CC(C)C(Cl)CCC(C)(Cl)C(=O)CBr (centres undefined) | 19.3 | 33.1 | – | 29.8 | 23 | 7.25 | 21.8 | 3.34 | 32.1 | 32.3
10 | C=C1CC[C@@H](CCC2CCC3(OC2)O[C@]2(O)CC[C@@]3(C)OC2(C)C)C(C)(C)[C@H]1C/C=C1\CCOC1=O (some centres undefined) | > 100 | > 53.3 | 26.5 | > 60.3 | 55.2 | > 100 | > 100 | > 58.9 | > 32.4 | > 92.4
11 | O=C(c1ccc(Cl)cc1)N(C(=O)N1CCCCC1)c1ccccc1 | > 100 | – | > 100 | > 100 | > 100 | > 100 | > 100 | – | > 100 | –
